Measurements reported in patent publication US20250228865A1, “COMPOUNDS FOR ENHANCING READ THROUGH OF GENES CONTAINING PREMATURE TERMINATION CODONS AND METHODS FOR MAKING AND USING THE SAME” (Sanofi US Services Inc., priority 2022, published 2025).
Read-outs that look alike come from different tables or passages of the source.

Tested on: recombinant human CFTR carrying the premature stop codon (PTC) mutation R1162X
Assay: CFTR-PTC mutant translation readthrough, Nanoluc tagged CFTR luminescence (R1162X cell line)
Type: cell-based
Conditions: for CFTR R1162X ACTIVITY Fold 10 μM G-418: fold over 10 μM G-418, in combination with G418
Method: 16HBE human bronchial epithelial cells (stably over-expressing recombinant human CFTR carrying the premature stop codon (PTC) mutation G542X or R1162X along with a Nanoluc tag incorporated into the CFTR channel within extracellular loop 4 in G542X cell line or C-terminus end in the R1162X cell line were seeded at 0.01×10^6 cells/well and grown in Minimal Essential Medium (MEM) as monolayers in 384 well plates and incubated at 37° C. with 5% CO2. Media was changed every other day until day of experiment. Agents to be evaluated were made up in separate 384 well, polypropylene plates at a 2X the final desired test concentration. Test agent 10-point concentration response curves were constructed using the Labcyte Echo 555 acoustic dispenser. Test agents were typically tested at a max final test concentrations of 50 μM with sequential 2-fold lower concentrations below this in the absence or presence of a fixed 10 μM concentration of the aminoglycoside G418 made up in MEM growth media (reduced Serum Media+HEPES Buffer+2.4 g/L Sodium Bicarbonate+L-Glutamine containing CFTR corrector VX-809 (3 μM)). Treatment with 10 μM G418 alone produced approximately 10% of the response observed with a maximally effective concentration of G418 (typically 125-250 μM). Test agent effects in presence of 10 μM G418 were compared to control wells on the plate containing a maximally effective concentration of G418 (typically 125-250 μM) made up in the same media. 25 ul of test agents/control solutions were transferred from the compound plate to the cell plate, which already contained 25 ul/well of cell plating media, using an Integra Viaflo 384. Cell plates were incubated with the compounds for 48 hours, at which time they were processed using Nanoluc luminescence Kit (Promega Nano-Glo Live Cell Assay System) to measure CFTR-PTC mutant translation readthrough. Luminescence was measured as follows. Cell plates were removed from the incubator and allowed to equilibrate to room temperature for 20 minutes. Media was removed from all wells and the plates were blotted to remove excess remaining volume. Nano-Glo Live Cell Substrate was diluted 1:20 in the appropriate amount of Nano-Glo LCS Dilution Buffer to accommodate the number of cell plates being tested. The substrate/dilution buffer mix was then diluted 1:3 with MEM media to make the appropriate volume for the number of plates being tested. The substrate/dilution buffer/OptiMEM mix was added across the Nanoluc testing cell plates and the plates were read for luminescence signal immediately. Test agent effects on CFTR translation readthrough was determined by normalizing any observed increase in luminescence induced by 48 hours pretreatment with test compound to the magnitude of luminescence increase produced by pretreatment with a maximally effective concentration of the reference readthrough enhancing agent G418 (125-250 μM).

[1] = in combination with G418, 16HBE cells, read-out: CFTR R1162X ACTIVITY EC50
[2] = read-out: CFTR R1162X ACTIVITY EC50, in combination with G418, 16HBE cells

O=C1CN(c2ccc(OCc3c(C(F)(F)F)ccc(F)c3Cl)cn2)C(=O)N1
CFTR R1162X ACTIVITY Fold 10 μM G-418: C′ (C′ = <5X)
EC50 [1]: < 1000 nM

O=C1CN(c2cnc(OCc3c(Cl)cccc3C(F)(F)F)cn2)C(=O)N1
CFTR R1162X ACTIVITY Fold 10 μM G-418: C′ (C′ = <5X)
EC50 [1]: 1000 to 10000 nM

N#CC1(O)CN(c2ncc(OCc3c(Cl)cccc3C(F)(F)F)cn2)C1
CFTR R1162X ACTIVITY Fold 10 μM G-418: A′ (A′ = ≥10X)
EC50 [1]: < 1000 nM

Cc1cccc(C(F)(F)F)c1COc1cnc(-n2ccc(C(N)=O)n2)nc1
CFTR R1162X ACTIVITY Fold 10 μM G-418: C′ (C′ = <5X)
EC50 [1]: < 1000 nM

NC(=O)c1ccn(-c2ncc(OCc3c(C(F)(F)F)cccc3C(F)(F)F)cn2)n1
CFTR R1162X ACTIVITY Fold 10 μM G-418: A′ (A′ = ≥10X)
EC50 [1]: < 1000 nM

O=C1CN(c2ccc(OCc3c(Cl)ccc(F)c3C(F)(F)F)cn2)C(=O)N1
CFTR R1162X ACTIVITY Fold 10 μM G-418: A′ (A′ = ≥10X)
EC50 [1]: < 1000 nM

Cc1cccc(C(F)(F)F)c1COc1cnc(N2CCN(C)[C@@H](CN)C2)nc1
CFTR R1162X ACTIVITY Fold 10 μM G-418: C′ (C′ = <5X)
EC50 [1]: > 10000 nM

CC(=O)N1CCN(c2ncc(OCc3c(Cl)cccc3C(F)(F)F)cn2)C[C@@H]1CN
CFTR R1162X ACTIVITY Fold 10 μM G-418: B′ (B′ = ≥5X to <10X)
EC50 [1]: 1000 to 10000 nM

O=C1OC(CO)CN1c1ncc(OCc2c(Cl)ccc(F)c2Cl)cn1 (centres unmarked)
CFTR R1162X ACTIVITY Fold 10 μM G-418: C′ (C′ = <5X)
EC50 [1]: 1000 to 10000 nM

FC(F)(F)c1cccc(Cl)c1COc1cnc(N2CCn3c(nnc3C(F)(F)F)C2)nc1
CFTR R1162X ACTIVITY Fold 10 μM G-418: C′ (C′ = <5X)
EC50 [1]: 1000 to 10000 nM

Cc1c(F)ccc(C(F)(F)F)c1COc1ccc(-n2cnc(CO)n2)cc1
CFTR R1162X ACTIVITY Fold 10 μM G-418: C′ (C′ = <5X)
EC50 [1]: < 1000 nM

Cc1ccc(F)c(C(F)(F)F)c1COc1ccc(-n2cnc(CO)n2)cc1
CFTR R1162X ACTIVITY Fold 10 μM G-418: A′ (A′ = ≥10X)
EC50 [1]: < 1000 nM

OCc1ncn(-c2ncc(CCc3c(Cl)cccc3Cl)cn2)n1
CFTR R1162X ACTIVITY Fold 10 μM G-418: C′ (C′ = <5X)
EC50 [1]: 1000 to 10000 nM

OCc1ncn(-c2ncc(OCc3c(C(F)(F)F)ccc(F)c3Cl)cn2)n1
CFTR R1162X ACTIVITY Fold 10 μM G-418: A′ (A′ = ≥10X)
EC50 [1]: 1000 to 10000 nM

OCc1ncn(-c2ccc(OCc3c(C(F)(F)F)ccc(F)c3Cl)cn2)n1
CFTR R1162X ACTIVITY Fold 10 μM G-418: C′ (C′ = <5X)
EC50 [1]: < 1000 nM

OCc1cn(-c2ncc(OCc3c(C(F)(F)F)ccc(F)c3Cl)cn2)cn1
CFTR R1162X ACTIVITY Fold 10 μM G-418: C′ (C′ = <5X)
EC50 [1]: < 1000 nM

[2H]C([2H])(O)c1ncn(-c2ncc(OC([2H])([2H])c3c(Cl)cccc3C(F)(F)F)cn2)n1
CFTR R1162X ACTIVITY Fold 10 μM G-418: C′ (C′ = <5X)
EC50 [1]: 1000 to 10000 nM

OCc1ccn(-c2ncc(OCc3c(Cl)cccc3C(F)(F)F)cn2)n1
CFTR R1162X ACTIVITY Fold 10 μM G-418: C′ (C′ = <5X)
EC50 [1]: < 1000 nM

OCc1ccn(-c2ncc(OCc3c(C(F)(F)F)cccc3C(F)(F)F)cn2)n1
CFTR R1162X ACTIVITY Fold 10 μM G-418: A′ (A′ = ≥10X)
EC50 [1]: < 1000 nM

OCc1cn(-c2ncc(OCc3c(C(F)(F)F)cccc3C(F)(F)F)cn2)cn1
CFTR R1162X ACTIVITY Fold 10 μM G-418: A′ (A′ = ≥10X)
EC50 [1]: < 1000 nM

OCc1cn(-c2ncc(OCc3c(Cl)ccc(F)c3Cl)cn2)nn1
CFTR R1162X ACTIVITY Fold 10 μM G-418: C′ (C′ = <5X)
EC50 [1]: 1000 to 10000 nM

OCc1cn(-c2ncc(OCc3c(Cl)ccc(F)c3Cl)cn2)cn1
CFTR R1162X ACTIVITY Fold 10 μM G-418: C′ (C′ = <5X)
EC50 [1]: < 1000 nM

OCc1cn(-c2ncc(OCc3c(Cl)cc(F)cc3Cl)cn2)cn1
CFTR R1162X ACTIVITY Fold 10 μM G-418: C′ (C′ = <5X)
EC50 [1]: 1000 to 10000 nM

[2H]C([2H])(O)c1ccn(-c2ncc(OC([2H])([2H])c3c(Cl)cccc3Cl)cn2)n1
CFTR R1162X ACTIVITY Fold 10 μM G-418: C′ (C′ = <5X)
EC50 [1]: 1000 to 10000 nM

OCc1ncn(-c2ncc(OCc3c(Cl)ccc(F)c3C(F)(F)F)cn2)n1
CFTR R1162X ACTIVITY Fold 10 μM G-418: A′ (A′ = ≥10X)
EC50 [1]: < 1000 nM

Cc1cccc(C(F)(F)F)c1COc1cnc(-n2ncc(CO)n2)nc1
CFTR R1162X ACTIVITY Fold 10 μM G-418: C′ (C′ = <5X)
EC50 [1]: < 1000 nM

OCc1cnn(-c2ncc(OCc3c(Cl)ccc(F)c3Cl)cn2)n1
CFTR R1162X ACTIVITY Fold 10 μM G-418: C′ (C′ = <5X)
EC50 [1]: < 1000 nM

O=C1N[C@H](CO)CN1c1ccc(OCc2c(Cl)cccc2C(F)(F)F)cn1
CFTR R1162X ACTIVITY Fold 10 μM G-418: C′ (C′ = <5X)
EC50 [1]: < 1000 nM

CCc1cccc(C(F)(F)F)c1COc1cnc(N2C[C@@H](CO)NC2=O)nc1
CFTR R1162X ACTIVITY Fold 10 μM G-418: C′ (C′ = <5X)
EC50 [1]: 1000 to 10000 nM

O=C1N[C@H](CO)CN1c1ccc(OCc2c(C(F)(F)F)cccc2C(F)(F)F)cn1
CFTR R1162X ACTIVITY Fold 10 μM G-418: C′ (C′ = <5X)
EC50 [1]: < 1000 nM

O=C1CN(c2ccc(OCc3c(C(F)(F)F)cccc3C(F)(F)F)cn2)C(=O)N1 [1-(5-{[2,6-bis(trifluoromethyl)phenyl]methoxy}pyridin-2-yl)imidazolidine-2,4-dione]
CFTR R1162X ACTIVITY Fold 10 μM G-418: A′ (A′ = ≥10X)
EC50 [1]: < 1000 nM

O=C1OC(CO)CN1c1ccc(OCc2c(Cl)ccc(F)c2Cl)cn1 (centres unmarked) [3-{5-[(2,6-dichloro-3-fluorophenyl)methoxy]pyridin-2-yl}-5-(hydroxymethyl)-1,3-oxazolidin-2-one]
CFTR R1162X ACTIVITY Fold 10 μM G-418: C′ (C′ = <5X)
EC50 [1]: 1000 to 10000 nM

O=C1N[C@H](CO)CN1c1ncc(OCc2c(C(F)(F)F)cccc2C(F)(F)F)cn1 [(4S)-1-(5-{[2,6-bis(trifluoromethyl)phenyl]methoxy}pyrimidin-2-yl)-4-(hydroxymethyl)imidazolidin-2-one]
CFTR R1162X ACTIVITY Fold 10 μM G-418: C′ (C′ = <5X)
EC50 [1]: > 10000 nM

Cc1cccc(C(F)(F)F)c1COc1cnc(N2C[C@@H](CO)NC2=O)nc1 [(4S)-4-(hydroxymethyl)-1-(5-{[2-methyl-6-(trifluoromethyl)phenyl]methoxy}pyrimidin-2-yl)imidazolidin-2-one]
CFTR R1162X ACTIVITY Fold 10 μM G-418: C′ (C′ = <5X)
EC50 [1]: 1000 to 10000 nM

O=C1CN(c2ccc(OCc3c(Cl)cccc3Cl)cn2)C(=O)N1 [Compound 332, 1-{5-[(2,6-dichlorophenyl)methoxy]pyridin-2-yl}imidazolidine-2,4-dione]
CFTR R1162X ACTIVITY Fold 10 μM G-418: C′ (C′ = <5X)
EC50 [1]: < 1000 nM

O=C1CN(c2cnc(OCc3c(Cl)cccc3Cl)cn2)C(=O)N1 [Compound 336, 1-{5-[(2,6-dichlorophenyl)methoxy]pyrazin-2-yl}imidazolidine-2,4-dione]
CFTR R1162X ACTIVITY Fold 10 μM G-418: C′ (C′ = <5X)
EC50 [1]: 1000 to 10000 nM

O=C1CN(c2ccc(OCc3c(Cl)ccc(F)c3Cl)cn2)C(=O)N1 [Compound 341, 1-{5-[(2,6-dichloro-3-fluorophenyl)methoxy]pyridin-2-yl}imidazolidine-2,4-dione]
CFTR R1162X ACTIVITY Fold 10 μM G-418: C′ (C′ = <5X)
EC50 [1]: < 1000 nM

O=C1CN(c2ccc(OCc3c(Cl)cc(F)cc3Cl)cn2)C(=O)N1 [Compound 349, 1-{5-[(2,6-dichloro-4-fluorophenyl)methoxy]pyridin-2-yl}imidazolidine-2,4-dione]
CFTR R1162X ACTIVITY Fold 10 μM G-418: C′ (C′ = <5X)
EC50 [1]: 1000 to 10000 nM

O=C1CN(c2ccc(OCc3c(Cl)cccc3Cl)nn2)C(=O)N1 [Compound 351, 1-{6-[(2,6-dichlorophenyl)methoxy]pyridazin-3-yl}imidazolidine-2,4-dione]
CFTR R1162X ACTIVITY Fold 10 μM G-418: C′ (C′ = <5X)
EC50 [1]: 1000 to 10000 nM

O=C1CN(c2ncc(OCc3c(Cl)cccc3C(F)(F)F)cn2)C1 [Compound 355, 1-(5-{[2-chloro-6-(trifluoromethyl)phenyl]methoxy}pyrimidin-2-yl)azetidin-3-one]
CFTR R1162X ACTIVITY Fold 10 μM G-418: A′ (A′ = ≥10X)
EC50 [1]: < 1000 nM

OCc1ncn(-c2ccc(OCc3c(Cl)cccc3Cl)cn2)n1 [Example 337, (1-{5-[(2,6-dichlorophenyl)methoxy]pyridin-2-yl}-1,2,4-triazol-3-yl) methanol]
CFTR R1162X ACTIVITY Fold 10 μM G-418: C′ (C′ = <5X)
EC50 [1]: < 1000 nM

OCc1ccn(-c2cnc(OCc3c(Cl)cccc3Cl)cn2)n1 [Example 339, (1-{5-[(2,6-dichlorophenyl)methoxy]pyrazin-2-yl}pyrazol-3-yl) methanol]
CFTR R1162X ACTIVITY Fold 10 μM G-418: C′ (C′ = <5X)
EC50 [2]: 1000 to 10000 nM

OCc1cncn1-c1ncc(OCc2c(Cl)cccc2Cl)cn1 [Example 362, (3-{5-[(2,6-dichlorophenyl)methoxy]pyrimidin-2-yl}imidazol-4-yl) methanol]
CFTR R1162X ACTIVITY Fold 10 μM G-418: A′ (A′ = ≥10X)
EC50 [2]: 1000 to 10000 nM
